Results as given in the supplement of paper PMC11061612.

Tests used:
[1] = tested on: C2BBe1 (Colorectal Carcinoma); assay: Bliss excess, mean over the matrix (fraction); higher = more synergy
Outline: (§1)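 Cell lines grown in DMEM/F12 or RPMI with 10% FBS were plated in 1536-well plates and held 24 hours at 37°C, 5% CO2 before 72 hours of exposure to two-drug dose matrices, with DMSO typically at 0.2%. CellTiter-Glo 2.0 luminescence gave viability, which was converted to inhibition. Vehicle wells were set to 0 and blank wells to 1. Combination Emax is the second-highest inhibition in the matrix, and Bliss excess is the observed combination effect minus the expected EA + EB − EA·EB, where EA and EB are the single-agent effects.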

[2] = tested on: COR-L105 (Lung Adenocarcinoma); assay: as above
Outline: as §1

[3] = tested on: GCIY (Gastric Carcinoma); assay: as above
Outline: as §1

[4] = tested on: HT-1197 (Bladder Carcinoma); assay: as above
Outline: as §1

[5] = tested on: JURL-MK1 (Chronic Myelogenous Leukemia); assay: as above
Outline: as §1

[6] = tested on: L-363 (Plasma Cell Myeloma); assay: as above
Outline: as §1

[7] = tested on: MG-63 (Osteosarcoma); assay: as above
Outline: as §1

[8] = tested on: MRK-nu-1 (Breast Carcinoma); assay: as above
Outline: as §1

[9] = tested on: NCI-H1048 (Small Cell Lung Carcinoma); assay: as above
Outline: as §1

[10] = tested on: NCI-H1975 (Lung Adenocarcinoma); assay: as above
Outline: as §1

[11] = tested on: NTERA-2-cl-D1 (Other Solid Carcinomas); assay: as above
Outline: as §1

[12] = tested on: RS4-11 (B-Lymphoblastic Leukemia); assay: as above
Outline: as §1

[13] = tested on: RVH-421 (Melanoma); assay: as above
Outline: as §1

[14] = tested on: SCC90 (Head and Neck Carcinoma); assay: as above
Outline: as §1

[15] = tested on: SW1463 (Colorectal Carcinoma); assay: as above
Outline: as §1

[16] = tested on: TK (B-Cell Non-Hodgkin's Lymphoma); assay: as above
Outline: as §1

[17] = tested on: RVH-421 (Melanoma); assay: combination Emax (second highest fraction inhibited in the dose matrix, 72 h); higher = more inhibition; extreme values may be limits of the assay
Outline: as §1
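Throughout, for Bliss excess, mean over the matrix: after 72 h of two-drug dosing.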

| Structure (SMILES) | Bliss excess [1] | Bliss excess [2] | Bliss excess [3] | Bliss excess [4] | Bliss excess [5] | Bliss excess [6] | Bliss excess [7] | Bliss excess [8] | Bliss excess [9] | Bliss excess [10] | Bliss excess [11] | Bliss excess [12] | Bliss excess [13] | Bliss excess [14] | Bliss excess [15] | Bliss excess [16] | combination Emax [17] |
| --- | --- | --- | --- | --- | --- | --- | --- | --- | --- | --- | --- | --- | --- | --- | --- | --- | --- |
| CCN(CCO)CCCOc1ccc2c(Nc3cc(CC(=O)Nc4cccc(F)c4)[nH]n3)ncnc2c1 [AZD2811] + O=C(c1cc(Cc2n[nH]c(=O)c3ccccc23)ccc1F)N1CCN(C(=O)C2CC2)CC1 [Olaparib] (first compound max 1 µM, 7x7, partner max 10 µM) | -0.0112 | -0.0311 | -0.0066 | 0.0045 | 0.073 | 0.0025 | 0.0197 | -0.0037 | -0.0161 | 0.0034 | 0.066 | 0.0327 | -0.0685 | 0.0459 | 0.0014 | 0.0322 | 0.176 |
| CCN(CCO)CCCOc1ccc2c(Nc3cc(CC(=O)Nc4cccc(F)c4)[nH]n3)ncnc2c1 [AZD2811] + C[C@@H]1COCCN1C2=NC(=NC(=C2)C3(CC3)[S@](=N)(=O)C)C4=C5C=CNC5=NC=C4 [AZD6738] (first compound max 1 µM, 7x7, partner max 10 µM) | -0.0362 | -0.0679 | -0.0326 | -0.0441 | 0.027 | -0.0485 | 0.011 | -0.077 | -0.0304 | 0.0002 | -0.065 | 0.0023 | -0.0815 | 0.019 | -0.0218 | -0.0108 | 0.172 |
| Cc1c2c(nn1C)CSCc1cc(n(C)n1)CSc1cc(c3ccccc3c1)OCCCc1c(C(=O)O)n(C)c3c-2c(Cl)ccc13 [AZD5991] + Cn1cnc2c(F)c(Nc3ccc(Br)cc3Cl)c(C(=O)NOCCO)cc21 [Selumetinib] (first compound max 1 µM, 7x7, partner max 3 µM) | -0.0033 | -0.0263 | -0.0633 | -0.0375 | 0.0259 | 0.0099 | -0.042 | 0.0052 | -0.0224 | 0.0208 | 0.0115 | 0.0021 | -0.0194 | 0.0581 | -0.0352 | -0.009 | 0.449 |
| CN(CCO)CC[C@H](CSc1ccccc1)Nc1ccc(S(=O)(=O)NC(=O)c2ccc(N3CCC([C@@H](O)c4ccccc4-c4ccc(Cl)cc4)CC3)cc2)cc1S(=O)(=O)C(F)(F)F [AZD4320] + CN(C)CCCOc1ccc(-c2ccc3ncc4c(c3c2)n(C2CCOCC2)c(=O)n4C)cn1 [AZD0156] (first compound max 1 µM, 7x7, partner max 1 µM) | -0.0443 | -0.031 | 0.0237 | -0.0506 | -0.0368 | -0.0005 | -0.0816 | -0.0133 | 0.0406 | -0.0414 | -0.0692 | -0.0209 | -0.0254 | 0.0037 | -0.06 | 0.0083 | 0.164 |
| CN(CCO)CC[C@H](CSc1ccccc1)Nc1ccc(S(=O)(=O)NC(=O)c2ccc(N3CCC([C@@H](O)c4ccccc4-c4ccc(Cl)cc4)CC3)cc2)cc1S(=O)(=O)C(F)(F)F [AZD4320] + C=CCn1c(=O)c2cnc(Nc3ccc(N4CCN(C)CC4)cc3)nc2n1-c1cccc(C(C)(C)O)n1 [AZD1775] (first compound max 1 µM, partner max 1 µM) | -0.0286 | 0.0129 | 0.0735 | 0.0626 | 0.0098 | 0.032 | -0.0262 | -0.0295 | 0.27 | 0.0195 | 0.13 | 0.0285 | 0.0274 | 0.0385 | -0.044 | 0.0407 | 0.442 |
| CC1(C)CCC(CN2CCN(c3ccc(C(=O)NS(=O)(=O)c4ccc(NCC5CCOCC5)c([N+](=O)[O-])c4)c(Oc4cnc5[nH]ccc5c4)c3)CC2)=C(c2ccc(Cl)cc2)C1 [Venetoclax] + CN(C)CCCOc1ccc(-c2ccc3ncc4c(c3c2)n(C2CCOCC2)c(=O)n4C)cn1 [AZD0156] (first compound max 1 µM, 7x7, partner max 1 µM) | -0.0333 | -0.0408 | 0.0131 | -0.0266 | -0.0151 | 0.0188 | 0.0063 | 0.0046 | 0.0016 | -0.0611 | -0.0372 | -0.0088 | -0.0658 | 0.0217 | -0.045 | -0.0227 | 0.16 |
| CC1(C)CCC(CN2CCN(c3ccc(C(=O)NS(=O)(=O)c4ccc(NCC5CCOCC5)c([N+](=O)[O-])c4)c(Oc4cnc5[nH]ccc5c4)c3)CC2)=C(c2ccc(Cl)cc2)C1 [Venetoclax] + C1CN(CCC1(C(=O)N[C@@H](CCO)C2=CC=C(C=C2)Cl)N)C3=NC=NC4=C3C=CN4 [Capivasertib] (first compound max 1 µM, 7x7, partner max 3 µM) | -0.0585 | -0.0664 | -0.0778 | -0.0444 | -0.0259 | 0.0096 | -0.0862 | -0.0212 | 0.0124 | -0.0362 | -0.0574 | -0.003 | -0.0471 | 0.0282 | -0.0424 | -0.0111 | 0.351 |
| CC1(C)CCC(CN2CCN(c3ccc(C(=O)NS(=O)(=O)c4ccc(NCC5CCOCC5)c([N+](=O)[O-])c4)c(Oc4cnc5[nH]ccc5c4)c3)CC2)=C(c2ccc(Cl)cc2)C1 [Venetoclax] + Cc1cc2ncnn2cc1Nc1ncc2c(n1)n(C1CCOCC1)c(=O)n2C [AZD7648] (first compound max 1 µM, 7x7, partner max 10 µM) | -0.0132 | -0.0512 | -0.0232 | -0.0208 | -0.0068 | 0.0281 | -0.0405 | 0.0037 | 0.0067 | -0.0114 | -0.0216 | -0.0149 | -0.0443 | 0.118 | -0.0479 | 0.0006 | 0.221 |
| CN(CCO)CC[C@H](CSc1ccccc1)Nc1ccc(S(=O)(=O)NC(=O)c2ccc(N3CCC([C@@H](O)c4ccccc4-c4ccc(Cl)cc4)CC3)cc2)cc1S(=O)(=O)C(F)(F)F [AZD4320] + Cn1cnc2c(F)c(Nc3ccc(Br)cc3Cl)c(C(=O)NOCCO)cc21 [Selumetinib] (first compound max 1 µM, 7x7, partner max 3 µM) | 0.0082 | 0.0181 | 0.0199 | 0.0079 | 0.0111 | 0.0311 | -0.0179 | -0.0013 | 0.0198 | 0.0125 | -0.0415 | -0.0125 | 0.106 | 0.144 | 0.0106 | -0.032 | 0.643 |
| CC1(C)CCC(CN2CCN(c3ccc(C(=O)NS(=O)(=O)c4ccc(NCC5CCOCC5)c([N+](=O)[O-])c4)c(Oc4cnc5[nH]ccc5c4)c3)CC2)=C(c2ccc(Cl)cc2)C1 [Venetoclax] + COc1cc(Nc2ncc3c(n2)-c2ccc(Cl)cc2C(c2c(F)cccc2OC)=NC3)ccc1C(=O)O [Alisertib] (first compound max 1 µM, 7x7, partner max 10 µM) | -0.0271 | -0.0741 | 0.0271 | -0.0358 | -0.0542 | -0.0115 | -0.0116 | 0.129 | 0.0987 | -0.0453 | 0.0304 | 0.0168 | -0.058 | 0.135 | 0.017 | 0.223 | 0.0752 |
| Cc1c2c(nn1C)CSCc1cc(n(C)n1)CSc1cc(c3ccccc3c1)OCCCc1c(C(=O)O)n(C)c3c-2c(Cl)ccc13 [AZD5991] + C[C@@H](Nc1cc(F)cc(F)c1)c1cc(C(=O)N(C)C)cc2c(=O)cc(N3CCOCC3)oc12 [AZD8186] (first compound max 1 µM, 7x7, partner max 3 µM) | -0.026 | -0.0864 | -0.0611 | -0.0055 | -0.0112 | -0.0476 | -0.0213 | 0.0152 | 0.0019 | -0.0203 | 0.0081 | -0.0092 | -0.0204 | 0.0186 | -0.0398 | -0.0143 | 0.517 |
| CC1(C)CCC(CN2CCN(c3ccc(C(=O)NS(=O)(=O)c4ccc(NCC5CCOCC5)c([N+](=O)[O-])c4)c(Oc4cnc5[nH]ccc5c4)c3)CC2)=C(c2ccc(Cl)cc2)C1 [Venetoclax] + C[C@@H]1COCCN1C2=NC(=NC(=C2)C3(CC3)[S@](=N)(=O)C)C4=C5C=CNC5=NC=C4 [AZD6738] (first compound max 1 µM, 7x7, partner max 10 µM) | -0.0092 | -0.0429 | -0.0468 | -0.0033 | 0.0005 | 0.0331 | -0.0758 | -0.0003 | 0.0276 | -0.0391 | -0.0238 | 0.0104 | -0.0286 | -0.014 | -0.06 | 0.0223 | 0.26 |
| CN(C)CCCOc1ccc(-c2ccc3ncc4c(c3c2)n(C2CCOCC2)c(=O)n4C)cn1 [AZD0156] + C=CCn1c(=O)c2cnc(Nc3ccc(N4CCN(C)CC4)cc3)nc2n1-c1cccc(C(C)(C)O)n1 [AZD1775] (first compound max 1 µM, partner max 1 µM) | 0.0003 | -0.0414 | -0.0428 | -0.102 | 0.0119 | 0.0057 | -0.0428 | -0.0082 | -0.0815 | 0.017 | -0.0807 | -0.0405 | -0.0576 | -0.0542 | -0.0323 | -0.0045 | 0.161 |
| CC(=O)Nc1cccc(-n2c(=O)n(C3CC3)c(=O)c3c(Nc4ccc(I)cc4F)n(C)c(=O)c(C)c32)c1 [Trametinib] + Cc1nc(-c2cn3c(n2)-c2ccc(-c4cnn(C(C)(C)C(N)=O)c4)cc2OCC3)n(C(C)C)n1 [Taselisib] (first compound max 1 µM, 7x7, partner max 10 µM) | 0.0464 | 0.0409 | 0.0252 | 0.105 | -0.0107 | 0.241 | 0.0237 | 0.0116 | 0.245 | 0.177 | 0.022 | 0.0927 | 0.0732 | 0.0348 | 0.04 | -0.0052 | 0.638 |
| CN(C)CCCOc1ccc(-c2ccc3ncc4c(c3c2)n(C2CCOCC2)c(=O)n4C)cn1 [AZD0156] + C[C@@H]1COCCN1C2=NC(=NC(=C2)C3(CC3)[S@](=N)(=O)C)C4=C5C=CNC5=NC=C4 [AZD6738] (first compound max 1 µM, 7x7, partner max 10 µM) | -0.0234 | -0.0779 | 0.0607 | -0.0362 | 0.0269 | 0.0767 | -0.0056 | -0.0411 | -0.0129 | 0.0026 | -0.0472 | -0.0192 | -0.0581 | 0.0037 | -0.0057 | 0.0289 | 0.18 |
